Results taken from publication PMC11859825, “Discovery of Sphingosine Kinase Inhibition by Modified Quinoline-5,8-Diones” (Pharmaceuticals, 2025).
Several values for one entry are separate records, joined by “and”; a condition that tells them apart may be missing. Equal values may be shown once. Read-outs that look alike come from different tables or passages of the source.

Columns and labels:
[1] = molecular target: T1, recombinant human SphK2 (Homo sapiens, UniProt Q9NRA0); assay: Fluorometric NBD-sphingosine sphingosine kinase inhibition assay, SphK2; settings: for IC50: IC50 against SphK2
T1 sequence (Q9NRA0 1-654): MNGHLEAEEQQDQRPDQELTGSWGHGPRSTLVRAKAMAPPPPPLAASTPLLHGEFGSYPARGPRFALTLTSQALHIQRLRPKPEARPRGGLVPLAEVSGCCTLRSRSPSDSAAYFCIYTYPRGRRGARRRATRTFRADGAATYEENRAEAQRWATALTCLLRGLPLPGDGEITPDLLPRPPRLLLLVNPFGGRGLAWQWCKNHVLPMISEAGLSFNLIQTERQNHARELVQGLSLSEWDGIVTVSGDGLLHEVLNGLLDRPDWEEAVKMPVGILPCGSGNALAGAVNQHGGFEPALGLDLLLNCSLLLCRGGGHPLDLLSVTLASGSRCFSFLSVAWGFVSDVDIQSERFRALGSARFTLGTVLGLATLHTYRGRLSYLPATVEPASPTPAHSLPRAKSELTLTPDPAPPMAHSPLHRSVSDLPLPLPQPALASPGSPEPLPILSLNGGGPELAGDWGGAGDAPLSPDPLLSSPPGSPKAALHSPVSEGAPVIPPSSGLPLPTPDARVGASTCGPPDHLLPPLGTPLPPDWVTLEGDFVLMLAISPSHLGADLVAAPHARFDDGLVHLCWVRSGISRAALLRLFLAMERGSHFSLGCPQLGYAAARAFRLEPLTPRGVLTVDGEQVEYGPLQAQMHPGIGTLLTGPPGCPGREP
Method: (§1) The fluorescence-based assay involved incubating the quinoline-5,8-diones with SphK isoforms individually (recombinant SphK1 and SphK2 in duplicate) [41].
(§2) The relevant enzymes and inhibitors were incubated in total reaction volumes of 100 µL with 10 µM NBD-sphingosine, 500 µM 4-deoxypyridoxine and 1 mM Mg-ATP in assay buffer (100 mM Tris/HCl (pH 7.4), 150 mM NaCl, 2 mM Na3VO4 and 10 mM NaF) for 30 min at 37 °C. A reaction mixture containing no test SphK inhibitor served as the positive control, while a reaction mixture containing no Mg-ATP served as the negative control. Post-incubation, 100 µL of potassium phosphate buffer, pH 8.5, was added to each Eppendorf, followed by 500 µL of 2:1 Chloroform/Methanol. After brief mixing with a vortex, phases were separated by centrifugation at 2000 rpm for 5 min. […] Data are expressed as mean SD from a minimum of 2 independent experiments. […] From this, the IC50 values of several test inhibitors were calculated.

[2] = molecular target: recombinant human SphK1 (Homo sapiens, UniProt Q9NYA1); assay: Fluorometric NBD-sphingosine sphingosine kinase inhibition assay, SphK1; settings: for IC50: IC50 against SphK1; for Selectivity between SphK1 and SphK2 (in words): single-concentration screen, SphK1 versus SphK2
Method: as §1, §2

[3] = system: head and neck squamous cell carcinoma (SCC) cells; design: method as in PMID 29109864; settings: cited from earlier work
[4] = system: NCI-60 cell line panel; assay: NCI60 one-dose anticancer screen; format: cell-based, human; settings: 10 μM, mean growth percentage across 60 cell lines
Method: A preliminary anticancer study was conducted through the National Cancer Institute 60 human tumour cell line panel (NCI60) on a representative selection of the aryl-ether quinoline-5,8-diones (Table 2). […].
One-dose study: Tested compounds were initially solubilised in DMSO, diluted into RPMI 1640 and 5% fetal bovine serum/L-glutamine and added to 96-well plates containing cell lines previously cultured for 24 h. After 48 h of incubation, the media were removed, and the cells were fixed and stained with sulforhodamine B to determine overall percent growth/total protein content. Unbound dye was removed with five washes of 1% acetic acid, and the plates were allowed to air dry. The dye was then resolubilised in Tris buffer, and the colourimetric absorbance was measured (515 nm). Growth inhibition was measured relative to the response generated from proliferating cells cultured under identical conditions for 48 h. Data from one-dose experiments pertain to the percentage growth at 10 μM [60, 61].

[5] = system: 60 cell lines (NCI); design: method as in NCI cancer-screening platform (NSC796101); settings: ref NCI cancer-screening platform (NSC796101); read-out: Mean GI50 across 60 cell lines; cited from earlier work
[6] = molecular target: SphK2; settings: cited from earlier work
[7] = molecular target: SphK1; settings: cited from earlier work
[8] = system: A498 kidney adenocarcinoma cells; design: method as in PMID 22970244; settings: read-out: EC50, reduced proliferation; cited from earlier work
[9] = read-out: Spk2 % (inhibition), Average, 10 μM, Tables S3-S5
[10] = read-out: Spk2 % (inhibition), replicate A, 10 μM, Tables S3-S5
[11] = read-out: Spk2 % (inhibition), replicate B, 10 μM, Tables S3-S5
[12] = read-out: Spk1 % (inhibition), Average, 10 μM, Tables S3-S5
[13] = read-out: Spk1 % (inhibition), replicate A, 10 μM, Tables S3-S5
[14] = read-out: Spk1 % (inhibition), replicate B, 10 μM, Tables S3-S5
[15] = read-out: SphK2 inhibition, 10 μM compound
[16] = read-out: SphK1 inhibition, 10 μM compound

Chain of recombinant human SphK1 (Q9NYA1 whole entry): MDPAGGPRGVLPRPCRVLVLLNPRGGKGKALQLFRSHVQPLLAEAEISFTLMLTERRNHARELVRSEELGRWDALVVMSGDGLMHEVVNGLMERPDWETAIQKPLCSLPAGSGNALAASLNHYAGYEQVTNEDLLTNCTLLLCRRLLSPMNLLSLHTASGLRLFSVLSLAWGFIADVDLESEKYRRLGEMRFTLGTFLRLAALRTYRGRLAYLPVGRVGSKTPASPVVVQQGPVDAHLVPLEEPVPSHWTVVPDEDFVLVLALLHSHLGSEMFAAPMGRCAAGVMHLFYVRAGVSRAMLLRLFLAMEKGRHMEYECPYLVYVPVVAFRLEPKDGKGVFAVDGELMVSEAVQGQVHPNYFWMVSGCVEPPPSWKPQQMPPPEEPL

| inhibition at 10 µM [1, 9] [%] | inhibition at 10 µM [1, 10] [%] | inhibition at 10 µM [1, 11] [%] | inhibition at 10 µM [2, 12] [%] | inhibition at 10 µM [2, 13] [%] | inhibition at 10 µM [2, 14] [%] | inhibition at 10 µM [1, 15] [%] | inhibition at 10 µM [2, 16] [%] | Structure (SMILES) | other results |
| --- | --- | --- | --- | --- | --- | --- | --- | --- | --- |
| 0.4 | -1.7 | 2 | -6.7 | -8.6 | -4.9 |  |  | COc1cccc(OC2=CC(=O)c3ccc(C=O)nc3C2=O)c1 [Compound 14, 7-(3-Methoxyphenoxy)-5,8-dioxo-5,8-dihydroquinoline-2-carbaldehyde] |  |
| 39.7 | 38.1 | 41.1 | 14.6 | 4.3 | 22.6 |  |  | COc1ccc(OC2=CC(=O)c3ccc(C=O)nc3C2=O)cc1 [Compound 13, 7-(4-Methoxyphenoxy)-5,8-dioxo-5,8-dihydroquinoline-2-carbaldehyde] |  |
|  |  |  |  |  |  |  |  | Cc1cc(CS(=O)(=O)c2ccccc2)cc(OCc2ccc(CN3CCC[C@@H]3CO)cc2)c1 [PF-543] | inhibition at 0.1 µM ([1]; read-out: Spk2 % Inhibition): 0.7%; Necrotic SCC cells induced by PF-543 ([3]; with addition of ROS scavenger N-acetyl-L-cysteine): 26.3%; Necrotic SCC cells induced by PF-543 ([3]; without ROS scavenger): 48.6% |
| 22.1 | 18.1 | 25.3 | 11.1 | 6.2 | 15.2 |  |  | O=Cc1ccc2c(n1)C(=O)C(Oc1ccc(F)cc1)=CC2=O [Compound 15, 7-(4-Fluorophenoxy)-5,8-dioxo-5,8-dihydroquinoline-2-carbaldehyde] |  |
| -16.4 | -19.8 | -13.7 | -22.7 | -26.7 | -19.2 |  |  | O=Cc1ccc2c(n1)C(=O)C(Oc1ccc(F)c(F)c1)=CC2=O [Compound 18, 7-(3,4-Difluorophenoxy)-5,8-dioxo-5,8-dihydroquinoline-2-carbaldehyde] |  |
| 49.7 | 50.1 | 49.3 | 39.9 | 37.8 | 41.5 |  |  | COc1cccc(OC2=CC(=O)c3ccc(C)nc3C2=O)c1 [Compound 5, 7-(3-Methoxyphenoxy)-2-methylquinoline-5,8-dione] | Mean Growth (%) [4]: 88.5% |
| 43.2 |  | 43.4 | 69.7 | 62 | 75.8 | 43 | 70 | O=C1C=C(Oc2ccc(F)cc2)C(=O)c2nc(CN3CCC[C@@H]3CO)ccc21 [Compound 21, (R)-7-(4-Fluorophenoxy)-2-((2-(hydroxymethyl)pyrrolidin-1-yl)methyl)quinoline-5,8-dione] |  |
| 37.8 | 36 | 39.2 | 25.3 | 17 | 32.1 |  | 26 | Cc1ccc2c(n1)C(=O)C(Oc1ccc(Cl)c(Cl)c1)=CC2=O [Compound 8, 7-(3,4-Dichlorophenoxy)-2-methylquinoline-5,8-dione] |  |
| 36.8 | 37.5 | 36.3 | 69.2 | 58.5 | 77.5 | 37 | 69 | COc1ccc(OC2=CC(=O)c3ccc(C)nc3C2=O)cc1 [Compound 4] | IC50 [1]: 8.47 µM and 8 µM; IC50 [2]: 30.2 µM and 30 µM; Selectivity between SphK1 and SphK2 (in words) [2]: a level of selectivity for SphK1; Mean Growth (%) [4]: 84.4% |
| 25.2 | 27.4 | 23.5 | 20.3 | 14.4 | 25.1 |  | 20 | Cc1ccc2c(n1)C(=O)C(Oc1ccc(F)c(F)c1)=CC2=O [Compound 9, 7-(3,4-Difluorophenoxy)-2-methylquinoline-5,8-dione] |  |
|  |  |  |  |  |  | 36 |  | O=C(NCc1ccncc1)C12CC3CC(C1)CC(c1ccc(Cl)cc1)(C3)C2 [opaganib, reference compound] | GI50 [5]: 11.5 µM; inhibition at 10 µM ([1]; read-out: Spk2 % Inhibition, 10uM, Table S2 assay validation): 35.5%; inhibition at 10 µM ([2]; read-out: Spk1 % Inhibition, 10uM, Table S2 assay validation): -8.6%; Selectivity between SphK1 and SphK2 (in words) [2]: high SphK2 selectivity; Ki ([6]; ref 20-24 (b6), 19, 22): 9.8 µM |
| 3.2 | 6.8 | 0.3 | -0.9 | -4.1 | 1.8 |  |  | O=Cc1ccc2c(n1)C(=O)C(Oc1ccc(Br)cc1)=CC2=O [Compound 19, 7-(4-Bromophenoxy)-5,8-dioxo-5,8-dihydroquinoline-2-carbaldehyde] |  |
|  |  |  |  |  |  |  |  | Cc1ccc2c(n1)C(=O)C(Oc1ccc(Br)cc1)=CC2=O [Compound 12, 7-(4-Bromophenoxy)-2-methylquinoline-5,8-dione] | Mean Growth (%) [4]: 90.5% |
| 81.6 | 81.2 | 81.9 | 63.1 | 61.7 | 64.3 | 82 | 63 | COc1ccc(OC2=CC(=O)c3ccc(CN4CCC[C@@H]4CO)nc3C2=O)cc1 [Compound 20, (R)-2-((2-(Hydroxymethyl)pyrrolidin-1-yl)methyl)-7-(4-methoxyphenoxy)quinoline-5,8-dione] | IC50 [1]: 13.2 µM and 13 µM; IC50 [2]: 42.3 µM and 42 µM |
| 59.6 | 58.6 | 60.4 | 54.2 | 53.4 | 54.8 | ≥ 56 | ≥ 54 | Cc1ccc2c(n1)C(=O)C(Oc1ccc(F)cc1)=CC2=O [Compound 6, 7-(4-Fluorophenoxy)-2-methylquinoline-5,8-dione] | Mean Growth (%) [4]: 88.2% |
| -1.9 | -4.7 | 0.3 | -7.2 | -7.7 | -6.5 | 0 | 0 | Cc1ccc2c(n1)C(=O)C(Oc1ccc(F)c(Cl)c1)=CC2=O [Compound 10, 7-(3-Chloro-4-fluorophenoxy)-2-methylquinoline-5,8-dione] |  |
| 55.6 | 53.6 | 57.2 | 54.7 | 54.1 | 55.2 | ≥ 56 | ≥ 54 | Cc1ccc2c(n1)C(=O)C(Oc1ccc(C#N)cc1)=CC2=O [Compound 7, 2-Methyl-7-(4-(cyano)phenoxy)quinoline-5,8-dione] | Mean Growth (%) [4]: 97.3% |
|  |  |  |  |  |  |  |  | CC(=O)N(C1=C(Cl)C(=O)c2ccccc2C1=O)C1CCCCC1 [CB5468139] | Ki [7]: 0.3 µM; EC50 [8]: 10 to 15 µM; Concentration up to which SphK2 activity is not affected [6]: > 100 µM |
| 33.1 | 31.4 | 34.5 | 19 | 17.6 | 20.1 |  |  | Cc1ccc2c(n1)C(=O)C(Oc1ccc(CCO)cc1)=CC2=O [Compound 11, 7-(4-(2-Hydroxyethyl)phenoxy)-2-methylquinoline-5,8-dione] |  |
